Measured values from ChEMBL document CHEMBL1909046, “DrugMatrix in vitro pharmacology data”.

Key:
[1] = molecular target: Tyrosine-protein kinase Lck (Homo sapiens, UniProt P06239); test: DRUGMATRIX: Protein Tyrosine Kinase, LCK enzyme inhibition (substrate: Poly(Glu:Tyr)); type: cell-based, Insect cells; conditions: Not Active = under 50% inhibition at 10 µM
[2] = molecular target: Prostaglandin G/H synthase 1 (Homo sapiens, UniProt P23219); test: biochemical; type: tissue-based, Platelet;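 further: inhibition of COX-1 enzyme activity, with arachidonic acid supplied as substrate; in other assays of this panel Not Active means under 50% inhibition at 10 µM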
Prostaglandin G/H synthase 1, sequence (P23219 whole entry): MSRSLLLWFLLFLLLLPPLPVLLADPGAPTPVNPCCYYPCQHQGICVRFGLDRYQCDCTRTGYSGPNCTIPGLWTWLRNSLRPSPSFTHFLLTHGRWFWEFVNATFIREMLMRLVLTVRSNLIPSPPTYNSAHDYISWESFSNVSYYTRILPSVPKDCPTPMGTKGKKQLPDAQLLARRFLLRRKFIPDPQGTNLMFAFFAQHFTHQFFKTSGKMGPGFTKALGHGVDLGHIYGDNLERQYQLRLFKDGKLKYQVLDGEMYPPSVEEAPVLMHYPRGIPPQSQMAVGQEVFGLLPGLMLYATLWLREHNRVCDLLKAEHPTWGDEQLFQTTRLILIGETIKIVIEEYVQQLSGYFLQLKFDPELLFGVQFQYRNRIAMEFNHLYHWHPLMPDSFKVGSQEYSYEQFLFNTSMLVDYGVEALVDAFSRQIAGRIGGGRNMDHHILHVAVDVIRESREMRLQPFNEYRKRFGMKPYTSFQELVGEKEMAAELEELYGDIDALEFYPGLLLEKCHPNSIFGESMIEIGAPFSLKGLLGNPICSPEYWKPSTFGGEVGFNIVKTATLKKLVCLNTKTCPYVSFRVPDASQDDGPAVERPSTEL

[3] = molecular target: 5-hydroxytryptamine receptor 6 (Homo sapiens, UniProt P50406); type: cell membranes, HeLa, Membrane; further: in other assays of this panel Not Active means under 50% inhibition at 10 µM
5-hydroxytryptamine receptor 6, sequence (P50406 whole entry): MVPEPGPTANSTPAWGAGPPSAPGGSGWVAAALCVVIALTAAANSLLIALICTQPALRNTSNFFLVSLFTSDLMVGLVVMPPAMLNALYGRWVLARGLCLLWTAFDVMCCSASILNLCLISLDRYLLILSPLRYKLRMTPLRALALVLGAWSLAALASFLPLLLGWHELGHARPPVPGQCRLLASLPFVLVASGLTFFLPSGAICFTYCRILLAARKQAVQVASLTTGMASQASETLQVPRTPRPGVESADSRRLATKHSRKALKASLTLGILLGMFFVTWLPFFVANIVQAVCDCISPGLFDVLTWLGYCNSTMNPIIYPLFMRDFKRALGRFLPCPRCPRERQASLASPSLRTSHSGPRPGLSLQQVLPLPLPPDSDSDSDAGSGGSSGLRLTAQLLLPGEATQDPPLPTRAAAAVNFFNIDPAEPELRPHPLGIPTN

[4] = molecular target: 5-hydroxytryptamine receptor 2B (Homo sapiens, UniProt P41595); type: cell membranes, CHO-K1, Membrane; further: in other assays of this panel Not Active means under 50% inhibition at 10 µM
5-hydroxytryptamine receptor 2B, sequence (P41595 whole entry): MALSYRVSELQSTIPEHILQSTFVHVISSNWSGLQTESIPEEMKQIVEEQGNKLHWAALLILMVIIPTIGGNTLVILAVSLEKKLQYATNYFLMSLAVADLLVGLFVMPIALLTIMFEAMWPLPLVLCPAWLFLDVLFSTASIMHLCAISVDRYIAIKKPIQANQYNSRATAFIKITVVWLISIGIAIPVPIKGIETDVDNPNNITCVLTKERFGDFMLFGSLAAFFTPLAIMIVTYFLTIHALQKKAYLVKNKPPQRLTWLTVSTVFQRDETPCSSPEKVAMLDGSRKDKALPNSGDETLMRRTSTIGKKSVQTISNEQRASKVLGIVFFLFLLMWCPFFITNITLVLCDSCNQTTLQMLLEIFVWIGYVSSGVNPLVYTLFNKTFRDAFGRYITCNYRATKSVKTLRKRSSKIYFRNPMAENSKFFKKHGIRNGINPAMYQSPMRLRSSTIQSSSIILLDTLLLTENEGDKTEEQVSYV

Tyrosine-protein kinase Lck, sequence (P06239 whole entry): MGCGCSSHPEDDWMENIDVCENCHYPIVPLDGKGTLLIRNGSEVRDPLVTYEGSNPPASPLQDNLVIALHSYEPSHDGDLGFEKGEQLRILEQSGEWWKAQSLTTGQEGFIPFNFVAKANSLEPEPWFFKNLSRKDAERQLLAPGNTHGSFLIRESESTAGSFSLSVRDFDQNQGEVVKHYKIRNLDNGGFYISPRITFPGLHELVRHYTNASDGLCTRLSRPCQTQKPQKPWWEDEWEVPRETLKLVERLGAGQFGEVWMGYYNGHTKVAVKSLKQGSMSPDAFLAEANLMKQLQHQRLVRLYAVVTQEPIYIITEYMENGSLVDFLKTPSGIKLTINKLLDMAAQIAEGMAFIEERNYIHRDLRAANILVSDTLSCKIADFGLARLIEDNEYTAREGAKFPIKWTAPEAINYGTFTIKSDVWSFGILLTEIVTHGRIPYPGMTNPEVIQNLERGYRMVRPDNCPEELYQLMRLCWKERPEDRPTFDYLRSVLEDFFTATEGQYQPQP

Compound: CCCCC(=O)N(Cc1ccc(-c2ccccc2-c2nnn[nH]2)cc1)[C@H](C(=O)O)C(C)C
- IC50 ([1]; insect cells): Not Active
- IC50 ([2]; platelet): Not Active
- IC50 ([3]; hela): Not Active
- IC50 ([4]; cho-k1): Not Active

Compound: O=C(O)COc1ccc(C(=O)c2cccs2)c(Cl)c1Cl
- IC50 ([1]; insect cells): Not Active
- IC50 ([2]; platelet): Not Active
- IC50 ([3]; hela): Not Active
- IC50 ([4]; cho-k1): Not Active

Compound: CN1[C@@H]2CC[C@H]1C[C@@H](OC(c1ccccc1)c1ccccc1)C2 [BENZTROPINE]
- IC50 ([1]; insect cells): Not Active
- IC50 ([2]; platelet): Not Active
- IC50 ([3]; read-out: IC50): 2790 nM
- Ki ([3]; read-out: Ki): 1290 nM
- IC50 ([4]; read-out: IC50): 200 nM
- Ki ([4]; read-out: Ki): 127 nM

Compound: C[C@@](Cc1ccc(O)c(O)c1)(NN)C(=O)O.O [CARBIDOPA]
- IC50 ([1]; read-out: IC50): 6800 nM
- IC50 ([2]; platelet): Not Active
- IC50 ([3]; hela): Not Active
- IC50 ([4]; cho-k1): Not Active

Compound: CN1CCN(C2=Nc3cc(Cl)ccc3Nc3ccccc32)CC1 [CLOZAPINE]
- IC50 ([1]; insect cells): Not Active
- IC50 ([2]; platelet): Not Active

Compound: CC(C)NC[C@@H](O)COc1cccc2ccccc12 [DEXPROPRANOLOL]
- IC50 ([1]; insect cells): Not Active
- IC50 ([2]; platelet): Not Active
- IC50 ([3]; hela): Not Active

Compound: CC(C)NC[C@H](O)COc1cccc2ccccc12 [LEVOPROPRANOLOL]
- IC50 ([1]; insect cells): Not Active
- IC50 ([2]; platelet): Not Active
- IC50 ([3]; read-out: IC50): 998 nM
- Ki ([3]; read-out: Ki): 463 nM

Compound: O=C(O)CCCCC1CCSS1 (stereo not drawn) [LIPOIC ACID, ALPHA]
- IC50 ([1]; insect cells): Not Active
- IC50 ([2]; platelet): Not Active
- IC50 ([3]; hela): Not Active
- IC50 ([4]; cho-k1): Not Active

Compound: CN(C)C(=O)C(CCN1CCC(O)(c2ccc(Cl)cc2)CC1)(c1ccccc1)c1ccccc1 [LOPERAMIDE]
- IC50 ([1]; insect cells): Not Active
- IC50 ([2]; platelet): Not Active
- IC50 ([3]; hela): Not Active
- IC50 ([4]; read-out: IC50): 4100 nM
- Ki ([4]; read-out: Ki): 2610 nM

Compound: Clc1ccc(COC(Cn2ccnc2)c2ccc(Cl)cc2Cl)c(Cl)c1 (stereo not given) [MICONAZOLE]
- IC50 ([1]; insect cells): Not Active
- IC50 ([2]; platelet): Not Active
- IC50 ([3]; read-out: IC50): 10900 nM
- Ki ([3]; read-out: Ki): 5060 nM
- IC50 ([4]; read-out: IC50): 5550 nM
- Ki ([4]; read-out: Ki): 3530 nM

Compound: Oc1ccc2c3c1O[C@H]1[C@@H](O)CC[C@@]4(O)[C@@H](C2)N(CC2CCC2)CC[C@]314 [NALBUPHINE]
- IC50 ([1]; insect cells): Not Active
- IC50 ([2]; platelet): Not Active
- IC50 ([3]; hela): Not Active
- IC50 ([4]; cho-k1): Not Active

Compound: C[C@]12C=CC(=O)C=C1CC[C@@H]1[C@@H]2C(=O)C[C@@]2(C)[C@H]1CC[C@]2(O)C(=O)CO [PREDNISONE]
- IC50 ([1]; insect cells): Not Active
- IC50 ([2]; platelet): Not Active
- IC50 ([3]; hela): Not Active
- IC50 ([4]; cho-k1): Not Active

Compound: OCCOCCN1CCN(C2=Nc3ccccc3Sc3ccccc32)CC1 [QUETIAPINE]
- IC50 ([1]; insect cells): Not Active
- IC50 ([2]; platelet): Not Active
- IC50 ([3]; hela): Not Active

Compound: COC(=O)[C@H]1[C@H]2C[C@@H]3c4[nH]c5cc(OC)ccc5c4CCN3C[C@H]2C[C@@H](OC(=O)c2cc(OC)c(OC)c(OC)c2)[C@@H]1OC [RESERPINE]
- IC50 ([1]; insect cells): Not Active
- IC50 ([2]; platelet): Not Active
- IC50 ([3]; hela): Not Active
- IC50 ([4]; cho-k1): Not Active

Compound: O=C(O)c1ccccc1O [SALICYLIC ACID]
- IC50 ([1]; insect cells): Not Active
- IC50 ([2]; platelet): Not Active
- IC50 ([3]; hela): Not Active
- IC50 ([4]; cho-k1): Not Active

Compound: C[S+]([O-])c1ccc(-c2nc(-c3ccncc3)c(-c3ccc(F)cc3)[nH]2)cc1 (stereo not given) [SB-203580]
- IC50 ([2]; platelet): Not Active
- IC50 ([3]; hela): Not Active
- IC50 ([4]; cho-k1): Not Active

Compound: CC1CCC(NC(=O)N(CCCl)N=O)CC1 (stereo not given) [SEMUSTINE]
- IC50 ([1]; insect cells): Not Active
- IC50 ([2]; platelet): Not Active
- IC50 ([3]; hela): Not Active
- IC50 ([4]; cho-k1): Not Active

Compound: O=C1C[C@@H]2OCC=C3CN4CC[C@]56c7ccccc7N1[C@H]5[C@H]2[C@H]3C[C@H]46 [STRYCHNINE]
- IC50 ([1]; insect cells): Not Active
- IC50 ([2]; platelet): Not Active
- IC50 ([3]; hela): Not Active
- IC50 ([4]; cho-k1): Not Active

Compound: C[N+](C)(C)CCOC(=O)CCC(=O)OCC[N+](C)(C)C.[Cl-].[Cl-] [SUCCINYLCHOLINE CHLORIDE]
- IC50 ([1]; insect cells): Not Active
- IC50 ([2]; platelet): Not Active
- IC50 ([3]; hela): Not Active
- IC50 ([4]; cho-k1): Not Active

Compound: Nc1ccc(S(=O)(=O)NC(=O)c2ccccc2)cc1 [SULFABENZAMIDE]
- IC50 ([1]; insect cells): Not Active
- IC50 ([2]; platelet): Not Active
- IC50 ([3]; hela): Not Active
- IC50 ([4]; cho-k1): Not Active

Compound: CCCCCCCCNC(C)C(O)c1ccc(SC(C)C)cc1 (stereo not given) [SULOCTIDIL]
- IC50 ([1]; insect cells): Not Active
- IC50 ([2]; platelet): Not Active
- IC50 ([3]; hela): Not Active
- IC50 ([4]; read-out: IC50): 939 nM
- Ki ([4]; read-out: Ki): 598 nM

Compound: O=c1[nH]c(=O)n(C2CCCO2)cc1F (stereo not given) [TEGAFUR]
- IC50 ([1]; insect cells): Not Active
- IC50 ([2]; platelet): Not Active
- IC50 ([3]; hela): Not Active
- IC50 ([4]; cho-k1): Not Active

Compound: CC(=N)S [THIOACETAMIDE]
- IC50 ([1]; insect cells): Not Active
- IC50 ([2]; platelet): Not Active
- IC50 ([3]; hela): Not Active
- IC50 ([4]; cho-k1): Not Active

Compound: Cc1ccc(C(=O)c2ccc(CC(=O)O)n2C)cc1 [TOLMETIN]
- IC50 ([1]; insect cells): Not Active
- IC50 ([2]; read-out: IC50): 41 nM
- IC50 ([3]; hela): Not Active
- IC50 ([4]; cho-k1): Not Active

Compound: CC(=O)OCC(COC(C)=O)OC(C)=O [TRIACETIN]
- IC50 ([1]; insect cells): Not Active
- IC50 ([2]; platelet): Not Active
- IC50 ([3]; hela): Not Active
- IC50 ([4]; cho-k1): Not Active

Compound: CN1CCN(CCCN2c3ccccc3Sc3ccc(C(F)(F)F)cc32)CC1 [TRIFLUOPERAZINE]
- IC50 ([1]; insect cells): Not Active
- IC50 ([2]; platelet): Not Active
- IC50 ([3]; hela): Not Active
- IC50 ([4]; cho-k1): Not Active

Compound: TRANSPLATIN
- IC50 ([1]; insect cells, read-out: IC50): 2720 nM
- IC50 ([2]; platelet): Not Active
- Ki ([2]; platelet): Not Active
- IC50 ([3]; hela): Not Active
- Ki ([3]; hela): Not Active
- IC50 ([4]; cho-k1): Not Active
- Ki ([4]; cho-k1): Not Active

Compound: ZIRCONIUM(IV) CHLORIDE
- IC50 ([1]; insect cells): Not Active
- Ki ([1]; insect cells): Not Active
- IC50 ([2]; platelet): Not Active
- Ki ([2]; platelet): Not Active
- IC50 ([3]; hela): Not Active
- Ki ([3]; hela): Not Active
- IC50 ([4]; cho-k1): Not Active
- Ki ([4]; cho-k1): Not Active
